Test results published in patent US7662860B2 (priority 2003, dated 2010).
Where two headings read alike, the source gives them in different places.

Tests used:
[1] = test system: SARS-CoV virus; type: cell-based; conditions: for CPE / Protective ratio of the infected cells: Vero-E6 cells infected with SARS-CoV; for Protective ratio of the infected cells: >1.5 times judged active
[2] = test system: Vero-E6 cell

CN(C)CCCSc1ccccc1NC(=O)C=Cc1ccccc1 [cinanserin, 2′-(3-dimethylaminopropylthio)cinnamanilide]
CPE ([1]; 4 ug/mL): + (<25% +)
Protective ratio of the infected cells ([1]; 4 ug/mL): 3.69 times
CPE ([1]; 20 ug/mL): + (<25% +)
Protective ratio of the infected cells ([1]; 20 ug/mL): 3.85 times
protective activity of inhibiting SARS-CoV from infecting Vero-E6 cell ([1]; result in words): evident protective activity
Cytotoxicity of the sample [2]: —* (key: *: if the cytotoxicity of the sample is >50% when comparing with the cell control, CPE isn't evaluated, and the protective ratio isn't calculated)
